Measured values reported in patent US12649748B2, “Wee1 inhibitor and use thereof” (JIANGSU TASLY DIYI PHARMACEUTICAL CO., LTD., priority 2021, dated 2026).
Converted amounts (≈) assume the structure as drawn. Read-outs that look alike come from different tables or passages of the source.

How the values were obtained:
H1299 cells = experiment: Anti-proliferative effect by Cell Titer-Glo, H1299; format: cell-based; conditions: Homo sapiens, NCI-H1299, 72 h, read-out: IC50 measured value H1299
Experimental: Compound solutions of different concentration gradients were prepared. DMSO was dissolved to a concentration of 10 mM test compound and 10 mM reference compound AZD1775, and the compounds were serially diluted in culture medium for a total of 9 dose points, with 2 parallel replicates set at each concentration. The cell growth group without compound was used as a positive control (maximum signal control) and the medium was used as a negative control (minimum signal control), while ensuring that the final level of DMSO in each reaction well was 0.2%. After removing the medium from the 384-well plate, 25 ul of the configured compound at different concentrations was transferred into the well plate and the compound and cells were incubated in the cell incubator at 37° C. with 5% CO2 for 3 days.
The 384-well plates were removed from the cell incubator and allowed to equilibrate for 1 h to room temperature. 25 ul of Cell Titer-Glo assay was added to each well, lysed on a shaker for 2 min and then read out (Luminescence) using a BMG PHERAStar after 10 min incubation. Calculate the inhibition rate from the luminescence signal: first calculate the average of the positive control (maximum signal control) and the negative control (minimum signal control).
[formula] to calculate the rate of inhibition of the cells by different concentrations of the compounds. The IC50 of the compound on cell activity inhibition was calculated by fitting a log(inhibitor) vs. response-Variable slope model to GraphPad Prism 6. The fitted equation was: Y=Bottom+(Top−Bottom)/(1+10^((Log IC50−X)*HillSlope)), where Y represents the rate of inhibition and X represents the concentration of the known compound after Log.

Solubility test = format: physicochemical; conditions: aqueous buffer, thermodynamic from solid; buffer solution, shaken at constant temperature 24 h
Experimental: The compound was placed in a buffer solution and shaken at constant temperature for 24 h. […] Chromatographic conditions: C18 column, mobile phase A: 0.02 M potassium dihydrogen phosphate:acetonitrile=90:10, mobile phase B: acetonitrile; V: 1.0 ml/min, T: 35° C., λ: 210 nm.

Wee1 protein = biological target: T1, Wee1 protein (Homo sapiens, UniProt P30291); experiment: Binding of compound to Wee1 protein and Tracer 178 by TR-FRET; conditions: inhibitory activity against Wee1 kinase, read-out: IC50 measured value
T1 construct: purchased Thermo Fisher PR7373A
Experimental: First, solutions of the compounds in different concentration gradients were prepared. […] DMSO was added as a positive control (maximal signal control) and a negative control (minimal signal control) and a final level of 0.25% DMSO was ensured in each reaction well.
WEE1 (Thermo Fisher, Cat #PR7373A) protein in buffer (50 mM Hepes pH 7.5, 10 mM MgCl2, 1 mM EGTA, 0.01% Brij-35) at 15 nM) in different concentrations of compound, and Tracer 178 (Invitrogen, PV5593) and MAb Anti-GST-Eu crypate (Cisbio, 61GSTKLA) were added to 384-well plates (Corning, cat #3574), centrifuged at 1000 rpm for 1 min and the 384-well plates were incubated in a constant temperature shaker for 60 min at 25° C. and 300 rpm. Tracer 178 and MAb Anti-GST-Eu crypate were prepared in buffer (50 mM HEPES pH 7.5, 10 mM MgCl2, 1 mM EGTA, 0.01% Brij-35) with a final reaction concentration of 50 nM for Tracer 178 and a final concentration of 2 nM for MAb Anti-GST-Eu crypate, where the negative control (minimal signal control) used an equal amount of buffer in place of the protein solution.
After incubation, readings were performed using BMG PHERAStar (excitation light at 337 nm and emission light at wavelength values of 620 nm and 665 nm to read the fluorescence signal values). […] The IC50 for inhibition of enzyme activity by the compounds was then calculated using GraphPad Prism 6 and fitted with a log (inhibitor) vs. response-Variable slope mode. The fitting equation was: Y=Bottom+(Top-Bottom)/(1+10^((Log IC50−X)*HillSlope)), where Y represents the percentage of residual enzyme activity known and X represents the known concentration of compound after the logarithm.

CYP3A4 = CYP3A4 (Homo sapiens, UniProt P08684); experiment: Inhibition of cytochrome P450, CYP3A4; format: in vitro ADME; conditions: CYP3A4 enzyme, pH 7.4, probe BOMCC, read-out: CYP inhibition/% 3A4; for inhibition at 30 min, 1 µM: compound concentration 1 μM; for inhibition at 30 min, 10 µM: compound concentration 10 μM
Experimental: Enzymatic experiments were performed to quantify the inhibition of CYP450 enzyme activity of each isoform of CYP450 by small molecule inhibitors through fluorescence generated by the oxidation of the substrate by cytochrome P450. […] The Solution B composition used for the experiment was: 40 U/mL G6PDH (Sigma-aldrich, Cat #G6378). The substrate mix was 0.05× Solution A, 0.01× Solution B, 50 mM Potassium Phosphate, 0.01 mM BOMCC/0.01 mM EOMCC/0.001 mM DBOMF. […] The data were analyzed and processed using GraphPad Prism 6 software to obtain IC50 values.

[1] = H1299 cells, 3 days, Cell Titer-Glo

T1 sequence (P30291 whole entry): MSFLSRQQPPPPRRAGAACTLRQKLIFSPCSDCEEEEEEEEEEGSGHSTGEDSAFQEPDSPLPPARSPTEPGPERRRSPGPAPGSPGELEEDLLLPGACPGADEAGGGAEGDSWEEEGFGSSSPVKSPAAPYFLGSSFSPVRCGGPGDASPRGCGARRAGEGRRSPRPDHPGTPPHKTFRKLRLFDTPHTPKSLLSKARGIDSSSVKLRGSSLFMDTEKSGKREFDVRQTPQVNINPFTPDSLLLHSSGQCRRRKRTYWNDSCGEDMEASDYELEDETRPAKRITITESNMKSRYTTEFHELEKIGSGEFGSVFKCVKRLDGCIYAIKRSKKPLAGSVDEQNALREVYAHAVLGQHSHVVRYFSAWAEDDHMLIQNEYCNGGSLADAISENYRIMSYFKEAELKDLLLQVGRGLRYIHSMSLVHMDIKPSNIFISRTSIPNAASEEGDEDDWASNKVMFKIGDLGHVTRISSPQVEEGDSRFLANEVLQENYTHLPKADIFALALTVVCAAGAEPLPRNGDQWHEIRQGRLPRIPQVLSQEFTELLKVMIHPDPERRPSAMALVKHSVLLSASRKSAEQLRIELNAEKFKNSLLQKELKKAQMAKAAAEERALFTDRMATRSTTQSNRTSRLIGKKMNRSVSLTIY
CYP3A4, sequence (P08684 whole entry, canonical isoform): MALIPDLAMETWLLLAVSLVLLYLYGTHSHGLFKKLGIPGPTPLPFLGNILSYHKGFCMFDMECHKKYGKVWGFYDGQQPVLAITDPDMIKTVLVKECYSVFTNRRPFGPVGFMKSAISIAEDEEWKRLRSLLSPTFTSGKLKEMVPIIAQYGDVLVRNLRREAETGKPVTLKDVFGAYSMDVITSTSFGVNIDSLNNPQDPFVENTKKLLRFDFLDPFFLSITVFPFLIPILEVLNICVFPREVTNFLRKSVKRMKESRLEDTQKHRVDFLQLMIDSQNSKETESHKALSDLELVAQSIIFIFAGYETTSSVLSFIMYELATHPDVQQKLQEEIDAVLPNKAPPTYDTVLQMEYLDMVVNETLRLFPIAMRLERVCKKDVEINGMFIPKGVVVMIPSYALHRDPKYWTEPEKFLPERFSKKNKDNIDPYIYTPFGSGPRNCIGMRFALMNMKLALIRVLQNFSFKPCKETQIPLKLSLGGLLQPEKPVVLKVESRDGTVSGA

Compound	IC50 (H1299 cells; [1]) [nM]	solubility at 24 h (Solubility test) [µg/mL]	IC50 (Wee1 protein) [nM]	inhibition at 30 min, 1 µM (CYP3A4) [%]	inhibition at 30 min, 10 µM (CYP3A4) [%]	IC50 (H1299 cells) [nM]
CN1CCN(c2ccc(Nc3ncc4cnn(-c5cccc(N=S(C)(C)=O)n5)c4n3)cc2)CC1 [Compound 1]	–	120 (≈ 251 µM)	1 to 10	8.1	10.9	1000 to 5000
CN1CCN(c2ccc(Nc3ncc4cnn(-c5cccc(C(C)(C)O)n5)c4n3)cc2)CC1 [Compound 2]	1000 to 5000	–	10 to 100	0	-10.6	–
Cc1cc(Nc2ncc3cnn(-c4cccc(N=S(C)(C)=O)n4)c3n2)ccc1N1CCN(C)CC1 [Compound 16]	100 to 1000	350 (≈ 712 µM)	1 to 10	–	–	–

Further lines, with some results ahead:

IC50 (H1299 cells; [1]) [nM]	solubility at 24 h (Solubility test) [µg/mL]	IC50 (Wee1 protein) [nM]	inhibition at 30 min, 1 µM (CYP3A4) [%]	inhibition at 30 min, 10 µM (CYP3A4) [%]	Compound	IC50 (H1299 cells) [nM]
100 to 1000	30 (≈ 59.9 µM)	–	–	–	C=CCn1c(=O)c2cnc(Nc3ccc(N4CCN(C)CC4)cc3)nc2n1-c1cccc(C(C)(C)O)n1 [AZD-1775, reference compound]	–
100 to 1000	–	10 to 100	-26.1	-25.7	CS(C)(=O)=Nc1cccc(-n2ncc3cnc(Nc4ccc(N5CCOCC5)cc4)nc32)n1 [Compound 6]	–
100 to 1000	–	1 to 10	–	–	Cc1cc(Nc2ncc3cnn(-c4cccc(N=S(C)(C)=O)n4)c3n2)ccc1N1CCC(N(C)C)CC1 [Compound 14]	–
